Test results: article PMC10888562 (International Journal of Molecular Sciences, 2024)
Values joined by “and” are separate entries in the source; they are usually repeats but may differ in a detail not shown here. Identical values can stand only once.

Columns and labels:
U87 glioblastoma = experiment: MTT cell viability assay (GI50), U87; type: cell-based, human; conditions: for SCI: GI50 (MCF10A)/GI50 (U87); for GI50: U87 glioblastoma, MTT
H460 lung = experiment: MTT cell viability assay (GI50), H460; type: cell-based, human; conditions: for SCI: GI50 (MCF10A)/GI50 (H460); for GI50: H460 lung, MTT
A431 skin = experiment: MTT cell viability assay (GI50), A431; type: cell-based, human; conditions: for GI50: A431 skin, MTT; for SCI: GI50 (MCF10A)/GI50 (A431)
Du145 prostate = experiment: MTT cell viability assay (GI50), Du145; type: cell-based, human; conditions: for fold more potent than carboplatin / fold more potent than cisplatin / fold more potent than oxaliplatin: GI50 ratio; for GI50: MTT; for SCI: GI50 (MCF10A)/GI50 (Du145)
BE2-C neuroblastoma = experiment: MTT cell viability assay (GI50), BE2-C; type: cell-based, human; conditions: for GI50: BE2-C neuroblastoma, MTT; for SCI: GI50 (MCF10A)/GI50 (BE2-C)
SJ-G2 glioblastoma = experiment: MTT cell viability assay (GI50), SJ-G2; type: cell-based, human; conditions: for SCI: GI50 (MCF10A)/GI50 (SJ-G2); for GI50: SJ-G2 glioblastoma, MTT
MIA pancreas = experiment: MTT cell viability assay (GI50), MIA; type: cell-based, human; conditions: for SCI: GI50 (MCF10A)/GI50 (MIA); for GI50: MIA pancreas, MTT
A2780 ovarian = experiment: MTT cell viability assay (GI50), A2780; type: cell-based, human; conditions: for GI50: A2780 ovarian, MTT; for SCI: GI50 (MCF10A)/GI50 (A2780)
MCF-7 breast = experiment: MTT cell viability assay (GI50), MCF-7; type: cell-based, human; conditions: for SCI: GI50 (MCF10A)/GI50 (MCF-7); for GI50: MCF-7 breast, MTT
[1] = tested on: multiple human cell lines; experiment: MTT cell viability assay, all cell lines (mean/range of GI50); type: cell-based; conditions: for fold decrease of average GI50 relative to the platinum(IV) scaffold: average GI50 of scaffold vs 5B3A derivative, all cell lines; for GI50: average over all cell lines
HT29 colon cells [2] = experiment: DCFDA cellular ROS production assay; type: cell-based, human; conditions: GI50 drug concentration (TBHP 20 μM)
Protocol: All values are expressed as relative fluorescence units (RFU).
To evaluate the presence of ROS in treated cells, a DCFDA/H2DCFDA-cellular ROS Assay Kit (Abcam, Cambridge, MA, USA) was used, as previously described. A total of 25,000 cells/mL of HT29 cells in DMEM were seeded in 96-well plates. Cells were washed with 1X kit buffer, and then stained with 25 μM 2′,7′-dichlorofluorescein diacetate (DCFH-DA) and incubated for 45 min. DCFH-DA was then removed, and cells were then re-washed with 1X kit buffer, after which phenol red free media was added. Cells were then treated with a GI50 drug concentration for each complex. The plates were directly scanned to measure fluorescence (relative fluorescence units (RFU)) at the time points indicated the Glo-Max®-Multimode microplate reader (Promega Corporation, Alexandra, VIC, Australia) at an excitation/emission of 485/535 nm, which is directly correlated to the DCFH-DA that is deacetylated by cellular esterases and then oxidised by ROS to the fluorescent compound DCF. To generate the positive control (20 μM tert-butyl hydroperoxide (TBHP)), cells were washed with 1X kit buffer, and stained with DCFDA (25 μM) for 45 min; this was removed and TBHP was added in phenol red free media, and the resulting solution was scanned as described above.

HT29 colon cells [3] = experiment: TMRE mitochondrial membrane potential (MtMP) assay; type: cell-based, human; conditions: GI50 drug concentration (FCCP 20 μM)
Protocol: This was achieved by determining if the overproduction of ROS induced by these complexes impacts mitochondrial activity by altering MtMP. Briefly, there is evidence showing a strong correlation between increased levels of ROS and mitochondrial impairment. […] The MtMP changes recorded are measured as RFU. […] To investigate the MtMP changes in HT29 treated cells, a TMRE-MtMP Assay Kit (Abcam, Cambridge, MA, USA) was used, as previously described. In 96-well plates, 25,000 cells/mL of HT29 colon cells in DMEM were seeded. Cells were treated with a GI50 drug concentration for each complex. At 24, 48 or 72 h, cells were washed with PBS and stained with tetramethylrhodamine, ethyl ester (TMRE) (1 μM) and incubated for 30 min. TMRE was then removed, and cells were then re-washed with PBS (0.2% BSA), after which phenol red free media was added. The plates were directly scanned to measure fluorescence (expressed as RFU), using the Glo-Max®-Multimode microplate reader (Promega Corporation, Alexandra, VIC, Australia) at an excitation/emission of 549/575 nm. For the positive control, 20 μM carbonyl cyanide 4-(trifluoromethoxy) phenylhydrazone (FCCP)) was added to the cells and incubated for 10 min. The cells were washed with PBS (0.2% BSA) and stained with TMRE (1 μM) for 30 min; this was removed, and phenol red free media was added, and the final solution was scanned as mentioned above.

[4] = Lipophilicity by analytical HPLC (log kw); type: physicochemical
From the text: The order of complexes by increasing lipophilicity is P-5B3A < 5-5B3A < 56-5B3A (Table 2 and Figure S27). It can be deduced that increasing methylation on the heterocyclic ligand increased lipophilicity. This trend agrees with published data. The determined log kw values are consistent and within the range of the log kw values determined for similar complexes reported in the literature.
Lipophilicity measurements were completed via analytical HPLC, as previously reported.

[5] = Stability in PBS monitored by analytical HPLC; type: physicochemical; conditions: PBS pH ~7.4, ~10 mM, 37 °C, one week, HPLC at 254 nm
Protocol: The stability of P-5B3A, 5-5B3A and 56-5B3A was monitored via analytical HPLC.
The stability of P-5B3A, 5-5B3A and 56-5B3A were measured at 254 nm. Each complex was incubated in aqueous phosphate-buffered saline (PBS) solution (pH ~7.4) (total sample concentration, ~10 mM) at 37 °C for one week. Analytical HPLC was utilised to monitor the experiments.

Solubility in d.i.H2O = type: physicochemical; conditions: room temperature
Protocol: The solubility of P-5B3A, 5-5B3A and 56-5B3A was tested in d.i.H2O at room temperature. Small aliquots of d.i.H2O were titrated into an Eppendorf tube containing 1 mg of each complex until full dissolution. For every titration, each sample solution was vortexed and sonicated.

[6] = tested on: non-tumour-derived MCF10A breast line; conditions: for GI50: MCF10A non-tumour-derived breast, MTT

Compound	SCI (U87 glioblastoma)	GI50 (U87 glioblastoma)	SCI (H460 lung)	GI50 (H460 lung)	GI50 (A431 skin)	SCI (A431 skin)	GI50 (Du145 prostate; Du145 prostate)	SCI (Du145 prostate)	GI50 (BE2-C neuroblastoma)	SCI (BE2-C neuroblastoma)	SCI (SJ-G2 glioblastoma)	SCI (MIA pancreas)	SCI (A2780 ovarian)	SCI (MCF-7 breast)	ROS Production (HT29 colon cells [2]; 24 h, control 60 ± 3)	ROS Production (HT29 colon cells [2]; 48 h, control 63 ± 4)	ROS Production (HT29 colon cells [2]; 72 h, control 85 ± 6)	MtMP Changes (HT29 colon cells [3]; 24 h, control 542 ± 4)	MtMP Changes (HT29 colon cells [3]; 48 h, control 507 ± 11)	MtMP Changes (HT29 colon cells [3]; 72 h, control 449 ± 10)	further results
[Pt^IV(5,6-Me2phen)(SS-DACH)(5B3A)(OH)]^2+ [56-5B3A]	0.04	88 ± 7 nM	0.42	7.8 ± 2.2 nM	33 ± 8.4 nM	0.10	1.2 ± 0.6 nM	2.75	150 ± 24 nM	0.02	0.03	0.28	0.18	0.05	274 RFU and 274 ± 9 RFU	418 RFU and 418 ± 15 RFU	474 ± 10 RFU	321 ± 11 RFU	267 ± 8 RFU	148 ± 7 RFU	fold more potent than 56MESS (Du145 prostate; Du145 prostate): 0.3 fold; fold more potent than carboplatin (Du145 prostate; Du145 prostate): ≥ 12,500 fold; fold more potent than cisplatin (Du145 prostate; Du145 prostate): 1000 fold; fold more potent than oxaliplatin (Du145 prostate; Du145 prostate): at least 2400 fold; GI50 (SJ-G2 glioblastoma): 110 ± 20 nM; GI50 (MIA pancreas): 12 ± 3 nM; GI50 (A2780 ovarian): 18 ± 6.1 nM; GI50 (MCF-7 breast): 68 ± 10 nM; fold decrease of average GI50 relative to the platinum(IV) scaffold [1]: 3.6 fold; GI50 [1]: 42 ± 7 nM; log kw Values [4]: 2.11; Stability [5]: adequately stable in aqueous solution for up to 1 week; Solubility (Solubility in d.i.H2O): 4000 µg/mL; GI50 [6]: 3.3 ± 0.9 nM
[Pt^IV(5-Mephen)(SS-DACH)(5B3A)(OH)]^2+ [5-5B3A]	0.08	240 ± 23 nM	0.63	30 ± 3 nM	93 ± 8 nM	0.20	10 ± 2 nM	1.90	340 ± 40 nM	0.06	0.10	0.61	0.45	0.10	160 RFU and 160 ± 11 RFU	230 RFU and 230 ± 9 RFU	315 RFU and 315 ± 14 RFU	324 ± 9 RFU	280 ± 12 RFU	184 ± 4 RFU	fold more potent than carboplatin (Du145 prostate; Du145 prostate): 1500 fold; fold more potent than cisplatin (Du145 prostate; Du145 prostate): 120 fold; fold more potent than oxaliplatin (Du145 prostate; Du145 prostate): 290 fold; GI50 (SJ-G2 glioblastoma): 200 ± 40 nM; GI50 (MIA pancreas): 31 ± 3 nM; GI50 (A2780 ovarian): 42 ± 4 nM; GI50 (MCF-7 breast): 200 ± 21 nM; fold lower average GI50 than 5MESS ([1]; average GI50, all cell lines): approximately 0.9 fold; fold decrease of average GI50 relative to the platinum(IV) scaffold [1]: 4 fold; GI50 [1]: 104 ± 12 nM; log kw Values [4]: 1.91; Stability [5]: adequately stable in aqueous solution for up to 1 week; Solubility (Solubility in d.i.H2O): 6000 µg/mL; GI50 [6]: 19 ± 1.5 nM
N.N.[Cl][Pt][Cl] [Cisplatin, cis-diammineplatinum(II) dichloride]	1.37		5.78			2.17				2.74	13.00	0.69	5.20	0.80	265 ± 19 RFU	299 ± 22 RFU	364 ± 18 RFU	232 ± 4 RFU	230 ± 4 RFU	192 ± 7 RFU	
[Pt^IV(phen)(SS-DACH)(5B3A)(OH)]^2+ [P-5B3A]	0.15	1900 ± 150 nM	0.65	430 ± 50 nM	1200 ± 100 nM	0.23	190 ± 23 nM	1.47	13000 nM	0.02	0.22	0.90	0.60	0.05	156 RFU and 156 ± 16 RFU	214 RFU and 214 ± 12 RFU	246 ± 11 RFU	332 ± 7 RFU	317 ± 7 RFU	263 ± 5 RFU	GI50 (SJ-G2 glioblastoma): 1300 ± 200 nM; GI50 (MIA pancreas): 310 ± 26 nM; GI50 (A2780 ovarian): 470 ± 18 nM; GI50 (MCF-7 breast): 5400 ± 2800 nM; fold larger average GI50 than 5-5B3A ([1]; average GI50, all cell lines): 20 fold; fold larger average GI50 than 56-5B3A ([1]; average GI50, all cell lines): 50 fold; fold decrease of average GI50 relative to the platinum(IV) scaffold [1]: ~1.6 fold; GI50 [1]: 2080 ± 703 nM; log kw Values [4]: 1.82; Stability [5]: adequately stable in aqueous solution for up to 1 week; Solubility (Solubility in d.i.H2O): 7000 µg/mL; fold difference in cytotoxicity versus PHENSS [6]: 0.9 fold; GI50 [6]: 280 ± 39 nM
